How the values were obtained:
[1] = system: UM-UC3 bladder cancer cell line; assay: CellTiter-Glo viability assay, UM-UC3; format: cell-based; details: Homo sapiens, UMUC3, FGFR3 status WT, 72 hours, read-out: Ganetespib IC50
Experimental: (§1) Cellular viability was assessed using the CellTiter-Glo Luminescent Cell Viability Assay (Promega) according to manufacturer protocols. Bladder cancer cell lines were seeded into 96-well plates based on optimal growth rates determined empirically for each line. Twenty-four hours after plating, cells were dosed with graded concentrations of ganetespib for 72 hours. CellTiter-Glo was added (50% v/v) to the cells, and the plates incubated for 10 minutes prior to luminescent detection in a SpectraMax Plus 384 microplate reader (Molecular Devices). Data were normalized to percent of control and IC50 values used to determine the sensitivity of each line. For the comparative analyses with ganetespib and BGJ398, RT112 cells were treated with graded concentrations of each compound for 72 hours and cell viability measured as above. For the evaluation of apoptotic induction, caspase activity was assessed using the Caspase-Glo 3/7 assay (Promega) according to manufacturer protocols. Twenty-four hours after plating, RT112 cells were treated with graded concentrations of ganetespib for 24 hours. Caspase-Glo was added to cells (50% v/v) and the plates incubated for 1 hour prior to luminescent detection.

HT29 cells = assay: LC-MS/MS bioanalysis of ganetespib in HT29 cells; format: in vitro ADME, human; details: 1 μM ganetespib, 8 hr
Experimental: Colon cancer cells were treated with 1 μM ganetespib for 5, 15, 30, 60 or 480 minutes. At each time point, media was collected and cell lysates were generated for subsequent bioanalysis of secreted and intracellular concentrations of ganetespib and its glucuronides. Equal protein concentrations from cell lysates or equal volumes of media were used for the bioanalysis. Samples were extracted by protein precipitation and analyzed by LC-MS/MS using an Agilent 1100 HPLC interfaced to an API 4000 tandem mass spectrometer (Applied Biosystems). A Phenomenex Kinetex 2.6 μm C18 (30×2.1 mm) column was used with a run time of 3.5 min per sample.

[2] = system: SCaBER bladder cancer cell line; assay: CellTiter-Glo viability assay, SCaBER; format: cell-based; details: Homo sapiens, FGFR3 status WT, 72 hours, read-out: Ganetespib IC50
Experimental: as §1

[3] = system: 5637 bladder cancer cell line; assay: CellTiter-Glo viability assay, 5637; format: cell-based; details: FGFR3 status WT, 72 hours, read-out: Ganetespib IC50
Experimental: as §1

[4] = system: RT112 bladder cancer cells; assay: Reverse phase protein array analysis in RT112 cells; format: cell-based; details: 100 nM ganetespib, 24 hours
Experimental: RT112 cells were treated with dimethyl sulfoxide (DMSO, control) or 100 nM ganetespib for 24 hours. Lysates were prepared as recommended by MD Anderson Cancer Center (Houston, Tex.), arrayed on nitrocellulose-coated FAST slides (Whatman) and probed for a standard list of antibodies.

SMILES: CC(C)c1cc(-c2n[nH]c(=O)n2-c2ccc3c(ccn3C)c2)c(O)cc1O [ganetespib]
- IC50 [1]: 33 nM
- ganetespib present (HT29 cells): 13 nM
- IC50 [2]: 10 nM
- IC50 [3]: 44 nM
- Fold Change AKT ([4]; AKT signaling): −2.4 fold
- Fold Change AKT (pS473) ([4]; AKT signaling): −2.5 fold
- Fold Change GSK3-A/B ([4]; AKT signaling): −1.5 fold
- Fold Change GSK3-A/B (pS2/S9) ([4]; AKT signaling): −1.8 fold
- Fold Change PDK1 ([4]; AKT signaling): −1.4 fold
- Fold Change PDK1 (pS241) ([4]; AKT signaling): −1.7 fold
- Fold Change BIM ([4]; Apoptosis): +1.4 fold
- Fold Change Caspase 7 (cleaved D198) ([4]; Apoptosis): +2.5 fold
- Fold Change CDK1 ([4]; Cell cycle regulation): −1.4 fold
- Fold Change Chk1 ([4]; Cell cycle regulation): −3.2 fold
- Fold Change Cyclin B1 ([4]; Cell cycle regulation): −1.9 fold
- Fold Change Rb (pS807/811) ([4]; Cell cycle regulation): −4.6 fold
- Fold Change p21 ([4]; Cell cycle regulation): +1.4 fold
- Fold Change p27 ([4]; Cell cycle regulation): +1.5 fold
- Fold Change C-RAF ([4]; MAPK pathway): −1.8 fold
- Fold Change MAPK (pT202/Y204) ([4]; MAPK pathway): −1.5 fold
- Fold Change MEK1 (pS217/S221) ([4]; MAPK pathway): −1.4 fold
- Fold Change P90RSK (pT359/S363) ([4]; MAPK pathway): −1.4 fold
- Fold Change Src (pY527) ([4]; MAPK pathway): −1.4 fold
- Fold Change EGFR ([4]; Receptor Tyrosine Kinases): −1.5 fold
- Fold Change EGFR (pY1068) ([4]; Receptor Tyrosine Kinases): −1.9 fold
- Fold Change HER2 ([4]; Receptor Tyrosine Kinases): −2.2 fold
- Fold Change HER2 (pY1248) ([4]; Receptor Tyrosine Kinases): −2.2 fold
- Fold Change HER3 ([4]; Receptor Tyrosine Kinases): −1.6 fold
- Fold Change MET (pY1235) ([4]; Receptor Tyrosine Kinases): −2.7 fold
- Fold Change HSP70/72 ([4]; Stress response): +3.0 fold
- Fold Change HSP90 alpha ([4]; Stress response): +1.6 fold
- Fold Change NF-κB p65 (pS536) ([4]; Transcription factors): −2.3 fold
- Fold Change c-Myc ([4]; Transcription factors): −2.5 fold
- Fold Change 4E-BP1 (pS65) ([4]; mTOR pathway): −2.5 fold
- Fold Change P70S6K (pT389) ([4]; mTOR pathway): −4.7 fold
- Fold Change PRAS40 (pT246) ([4]; mTOR pathway): −1.2 fold
- Fold Change S6 (pS235/S236) ([4]; mTOR pathway): −13.2 fold
- Fold Change S6 (pS240/S244) ([4]; mTOR pathway): −8.9 fold
- Fold Change TSC1 ([4]; mTOR pathway): −1.3 fold
- Fold Change Tuberin ([4]; mTOR pathway): −2.2 fold
- Fold Change mTOR (pS2448) ([4]; mTOR pathway): −2.2 fold
